Reference: patent publication US20220386611A1, “NOVEL HETEROARYL-TRIAZOLE COMPOUNDS AS PESTICIDES” (Bayer Aktiengesellschaft, priority 2019, published 2022)

Assays:
Format in all cases: in vivo
[1] = system: adult unfed cat fleas (Ctenocephalides felis); test: Ctenocephalides felis oral test; conditions: 48 h
Summary of the method: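 About 20 adult unfed fleas fed through parafilm on cattle blood containing compound (DMSO concentrate diluted in blood); blood held at 37° C., fleas at room temperature. Mortality in % scored after 2 days (100% = all killed).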

[2] = system: Rhipicephalus microplus larvae (strain Parkhurst, resistant against synthetic pyrethroids); test: Rhipicephalus (Boophilus) microplus in-vitro contact test, larval cattle tick; conditions: 5 μg/cm^2 (=500 g/ha), after 48 hours, read-out: efficacy (larvae dead or moribund)
Summary of the method: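 Compound in acetone coated on glass tube inner walls; 900 ppm gives 5 μg/cm^2. Pyrethroid-resistant Parkhurst larvae (20-50 per tube) held at 27 °C, 85% relative humidity. Efficacy scored after 48 h from loss of negative geotaxis; 100% means all larvae dead or moribund.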

[3] = system: Aedes aegypti strain MONHEIM; test: Aedes aegypti test (AEDSAE surface treatment & contact assay); conditions: 24 hours after contact, read-out: efficacy (mortality); for mortality at 4 mg/m2: surface concentration 4 mg/m^2, 30 minutes exposure; for mortality at 20 mg/m2: surface concentration 20 mg/m^2, 30 minutes exposure
Summary of the method: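 Compound dissolved in acetone (2 mg/ml) with 2000 ppm rapeseed oil methyl ester, then dried onto a glazed tile. Adult A. aegypti (MONHEIM strain) exposed to the surface for 30 min. Percent mortality scored 24 h after contact.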

[4] = system: Musca domestica strain WHO-N; test: Musca domestica test (MUSCDO surface treatment & contact assay); conditions: 24 hours after contact, read-out: efficacy (mortality); for mortality at 20 mg/m2: surface concentration 20 mg/m^2, 30 minutes exposure
Description: Musca domestica Test (MUSCDO Surface Treatment & Contact Assay)
Solvent: Aceton+2000 ppm rapeseed oil methyl ester (RME)
In order to produce a sufficient, active ingredient containing solution it is necessary to solve the test compound in the solvent-mix (acetone at 2 mg/ml/RME 2000 ppm). This solution is pipetted onto a glazed tile and after evaporation of the acetone, adult flies of the species Musca domestica strain WHO-N are placed onto the dried surface. The exposure time is 30 minutes. Mortality in percent (%) is determined 24 hours after contact of the insects to the treated surface. 100% mortality means that all tested insects are dead, whereas 0% means that no insect died.

[5] = system: adult brown dog ticks (Rhipicephalus sanguineus); test: Rhipicephalus sanguineus in-vitro contact test with adult brown dog ticks; conditions: 5 μg/cm^2 (=500 g/ha), after 48 hours, read-out: efficacy (ticks dead or moribund)
Summary of the method: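 Efficacy is % of adult ticks dead or moribund 48 h after confinement at room temperature in tubes wall-coated from acetone (5 μg/cm² at 900 ppm). Scoring by heat challenge at 45-50 °C up to 5 min; immotile or uncoordinated ticks failing to climb count as affected.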

[6] = system: adult cat fleas (Ctenocephalides felis); test: Ctenocephalides felis in-vitro contact test, adult cat flea; conditions: after 48 hours, read-out: efficacy (fleas dead or moribund); for pest or weed control at 1 µg/cm2, 100 g/ha: 1 μg/cm^2 (=100 g/ha); for pest or weed control at 5 µg/cm2, 500 g/ha: 5 μg/cm^2 (=500 g/ha)
Summary of the method: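 Compound in acetone coated onto glass tube inner walls (900 ppm giving 5 μg/cm^2); after drying, 5-10 adult fleas added and held at room temperature. After 48 h, fleas heat-stressed at 45-50° C for up to 5 min; immotile or uncoordinated fleas scored dead/moribund, giving % efficacy.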

[7] = system: green peach aphid (Myzus persicae); test: Myzus persicae oral test; conditions: 120 h
Summary of the method: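 Compound in acetone was diluted with water, and 50 μL was mixed with 150 μL IPL41 insect medium (33% + 15% sugar). A mixed aphid population fed on this through a parafilm seal. Mortality % was scored after 5 days, where 100% means all aphids were killed.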

Structure (SMILES): CC(NC(=O)c1cc(C(F)(F)F)cc(C(F)(F)F)c1)c1nc(Cl)nn1-c1ncccn1 (stereo not shown) [Example I-002]
- mortality at 100 ppm [1]: 100%
- pest or weed control at 5 µg/cm2 [2]: 100%
- mortality at 4 mg/m2 [3]: 80 to 100%
- mortality at 20 mg/m2 [3]: 80 to 100%
- mortality at 20 mg/m2 [4]: 80 to 100%
- pest or weed control at 5 µg/cm2, 500 g/ha [5]: 80%
- pest or weed control at 1 µg/cm2, 100 g/ha [6]: 100%
- mortality at 4 ppm [7]: 100%

Structure (SMILES): CC(NC(=O)c1cc(C(F)(F)F)cc(C(F)(F)F)c1)c1nc(Br)nn1-c1ncccn1 (stereo not shown) [Example I-010]
- mortality at 100 ppm [1]: 100%
- pest or weed control at 5 µg/cm2 [2]: 100%
- mortality at 20 mg/m2 [3]: 80 to 100%
- mortality at 20 mg/m2 [4]: 80 to 100%
- pest or weed control at 5 µg/cm2, 500 g/ha [5]: 100%
- pest or weed control at 5 µg/cm2, 500 g/ha [6]: 80%
- mortality at 4 ppm [7]: 100%

Structure (SMILES): CC(NC(=O)c1cc(C(F)(F)F)cc(C(F)(F)F)c1)c1nc(I)nn1-c1ncccn1 (stereo not shown) [Example I-021]
- mortality at 100 ppm [1]: 100%
- pest or weed control at 5 µg/cm2 [2]: 100%
- mortality at 4 mg/m2 [3]: 80 to 100%
- mortality at 20 mg/m2 [3]: 80 to 100%
- mortality at 4 mg/m2 ([4]; surface concentration 4 mg/m^2, 30 minutes exposure): 80 to 100%
- mortality at 20 mg/m2 [4]: 80 to 100%
- pest or weed control at 5 µg/cm2, 500 g/ha [5]: 80%
- pest or weed control at 1 µg/cm2, 100 g/ha [6]: 100%
- pest or weed control at 5 µg/cm2, 500 g/ha [6]: 100%
- mortality at 4 ppm [7]: 100%
